This test deals with adjuvant induced arthritis. The experiment in a line: adjuvant induced arthritis in rats, overall arthritis score; intraarticular right paw, per kg: succinylacetone 325 μg, methyl ester 150 μg, 4-acetyl-5-oxohexanoate 560 μg. It counts as in vivo, rat.

For the compound `CC(=O)CC(=O)CCC(=O)O` [Succinylacetone, 4,6-dioxoheptanoic acid], the overall arthritis score reads like this: (Exp. I (treated from same day), day 14) 0.6 ± 1.3; (Exp. I (treated from same day), day 16) 0.8 ± 1.8; (Exp. I (treated from same day), day 18) 1.4 ± 2.6; (Exp. I (treated from same day), day 20) 3 ± 5; (Exp. I (treated from same day), day 22) 3.8 ± 5; (Exp. I (treated from same day), day 24) 4 ± 3.9. For the same compound, the overall arthritis score was 5 ± 4.3 (Exp. I (treated from same day), day 26); 3.2 ± 3.8 (Exp. II (treated from day 4), day 14); 3.2 ± 3.8 (Exp. II (treated from day 4), day 16); 4.8 ± 3.6 (Exp. II (treated from day 4), day 18); 7 ± 2.3 (Exp. II (treated from day 4), day 20); 6.2 ± 2.4 (Exp. II (treated from day 4), day 22). The overall arthritis score (Exp. II (treated from day 4), day 24) came out at 6 ± 2.7; the overall arthritis score (Exp. II (treated from day 4), day 26) was determined as 7.8 ± 3; the overall arthritis score (Exp. III (treated from day 14), day 14) stood at 2.0 ± 3.9; the overall arthritis score (Exp. III (treated from day 14), day 16) was found to be 2.0 ± 3.9; the overall arthritis score (Exp. III (treated from day 14), day 18) was found to be 2.0 ± 2.9; the overall arthritis score (Exp. III (treated from day 14), day 20) was 2.4 ± 2.9. Also, the overall arthritis score is, setting by setting: (Exp. III (treated from day 14), day 22) 4.0 ± 3.7; (Exp. III (treated from day 14), day 24) 2.8 ± 2.8; (Exp. III (treated from day 14), day 26) 3.4 ± 2.7. The effect on arthritis result (comparison of treatment schedules, in words) is “also effective when administered 14 days subsequent to injection”.

For the origin of these results see patent US5216005A, “Immunosuppressive analogues and derivatives of succinylacetone” (priority 1990, dated 1993).
